Experimental data as given in patent publication US8716183B2, “Control of aquatic weeds with endothall and ALS-inhibiting agent” (SePro Corporation, priority 2008, dated 2014).

Tests used:
[1] = system: hydrilla (Hydrilla verticillata); test: Field Study 1: hydrilla control in a 6 acre lake divided into three zones; format: in vivo; conditions: 21 days after treatment
Experimental: A 6 acre somewhat rectangular-shaped lake was divided into three 2 acre zones for this testing. A 2-acre test site (Zone 1), located on the northern one-third of the lake, was treated with a penoxsulam plus endothall combination in order to evaluate control of the exotic aquatic weed, hydrilla (Hydrilla verticillata). Within a 50 gallon spray tank system powered by a 5.5 Hp Honda motor, 0.523 gallons Galleon SC (a commercially available penoxsulam formulation) and 12.7 gallons Aquathol K (a commercially available endothall formulation) were added to 36.78 gallons of water. The herbicide combination mixture delivered an application dose of 15 parts per billion penoxsulam and 0.71 ppm a.e. endothall to Zone 1. This herbicide mixture was evenly injected using a trailing hose over the airboat bow throughout the 2 acre Zone 1. On the day of treatment, Zone 1 contained approximately 90% hydrilla coverage, with growth near or at the water surface.
The remaining 4 acres (both Zone 2 (central one-third) and Zone 3 (southern one-third)) of the lake were treated with 15 ppb penoxsulam alone on the same day. Both Zones 2 and 3 contained approximately 90-95% hydrilla coverage at that time.
Twenty one days following the initial treatment, the hydrilla was assessed for herbicidal injury within Zones 1, 2, and 3. […] Approximately 10% of the original plant volume remained near the water's surface; the balance had fallen to the lake bottom. The same was true for a 1 acre area contiguous down lake to Zone 1 moving into Zone 2. All remaining hydrilla plants suspended in the water column within the 3 acres were expressing severe injury.
On this date, 0.71 ppm a.e. endothall (12.7 gallons Aquathol K) was applied to Zone 3 in order to evaluate contact herbicidal efficacy 21 days following a penoxsulam treatment.

[2] = system: hydrilla; test: Penoxsulam+endothall under static exposure to hydrilla, GR50 and Isobole analysis; format: in vivo, Hydrilla verticillata; conditions: harvested 55 days after treatment, n = 3, endothall as a.e., combinations as total ppb
Source text: (§1) Single apical meristems of hydrilla, collected from Florida, were planted into small pots (13.5 cm length×3.75 cm diameter) containing Wallace Farm® topsoil amended with 14-14-14 slow release Osmocote® fertilizer (˜2.5 g Osmocote/kg soil) on 18 Jul. 2008. Approximately 5 to 7 cm of the apical section extended above the sediment at planting, and a sand cap was placed over the potting soil (˜2 cm deep). Plants were then transferred to a 12 L acrylic tanks filled with well water. Tanks were maintained in a growth room with 14:10 h photoperiod at 26° C. Plants were allowed to establish growth for 14 days before treatment.
(§2) Treatments were replicated three times in a completely randomized design. […] All concentrations are expressed as a.e. for endothall.
All above ground biomass was harvested 55 days after treatment. Biomass was dried to constant moisture at 70° C., and dry weights were determined. Data were subjected to regression analysis using Sigma Plot software, and a GR50 was determined (concentration causing a 50% reduction in dry weight). All data were analyzed for synergism/antagonism using the Isobole analysis at the 95% confidence level (estimated using linear interpolation from 95% confidence bands) (Berenbaum, M. C. 1989, Pharmacological Reviews. 41:93-141; Streibig, J. C. 2003, Assessment of herbicide effects: http://www.ewrs.org/et/images/, Herbicide interaction.pdf). […]

[3] = system: hydrilla; test: Penoxsulam+endothall under multiple exposures to hydrilla, dry weight and Colby analysis; format: in vivo, Hydrilla verticillata; conditions: for Mean dry weight of hydrilla: penoxsulam 0.02, endothall 0.68 mg/L a.e.; for OBSERVED RESPONSE: penoxsulam 0.02, endothall 0.68 mg/L; for hydrilla biomass compared to untreated controls (LSD, p = 0.05): penoxsulam 0.02 or endothall 0.68 mg/L a.e. alone, 3 to 48 day exposures
Source text: Apical sections (12 to 15 cm in length) of hydrilla, collected from Florida, were planted into small pots (13.5 cm length×3.75 cm diameter) containing Wallace Farm® topsoil amended with 14-14-14 slow release Osmocote® fertilizer (˜2.5 g Osmocote/kg soil) on 16 Oct. 2008. Approximately 5 to 7 cm of the apical section extended above the sediment at planting, and a sand cap was placed over the potting soil (˜2 cm deep). Plants were then transferred to a 12 L acrylic tanks filled with well water. Tanks were maintained in a growth room with 14:10 h photoperiod at 26° C. Plants were allowed to grow for 8 days before the following treatments were initiated in triple replicate: • A) Untreated controls • B) Penoxsulam at 0.02 mg/L • C) Endothall at 0.68 mg/L a.e. • D) Simultaneous treatment • a. Penoxsulam 0.02 mg/L+endothall at 0.68 mg/L • i. Exposure times • 1. 3 days • 2. 6 days • 3. 12 days • 4. 24 days • 5. 48 days (static) • E) Sequential treatment • a. Penoxsulam 0.02 mg/L, add 0.68 mg/L endothall 24 days later—static exposure to combination • b. Endothall at 0.68 mg/L, add 0.02 mg/L penoxsulam 24 days later—static exposure to combination • c. Penoxsulam 0.02 mg/L, add 0.68 mg/L endothall 12 days later—12 day exposure to combination • d. Endothall at 0.68 mg/L, add 0.02 mg/L penoxsulam 12 days later—12 day exposure to combination • e. Penoxsulam 0.02 mg/L, add 0.68 mg/L endothall 6 days later—6 day exposure to combination • f. Endothall at 0.68 mg/L, add 0.02 mg/L penoxsulam 6 days later—6 day exposure to combination
Endothall was formulated as Aquathol K® (4.23 #/gallon dipotassium salt, or 3#/gallon a.e.); penoxsulam was formulated as Galleon SC® (2#/gallon active ingredient). All concentrations are expressed as a.e. for endothall. At each exposure time, plants were removed from treatments and placed in a tank with fresh water containing no herbicide (including controls) to remove the aqueous exposure and allow for recovery.
Plants were harvested at 48 days after initial treatment. At harvest, plants were rinsed free of algae and placed in paper sacks in a drying oven for 4 days at 70° C. temperature. Mean dry weights were determined and means separated using least significant differences. Difference between observed and expected responses was determined to evaluate potential interactions using methods reported by Colby (Colby S. R. 1967. Weeds. 15:20-22).

[4] = system: hydrilla; conditions: cited from earlier work
[5] = system: hydrilla; test: Imazamox+endothall under static exposure to hydrilla, GR50 and Isobole analysis; format: in vivo, Hydrilla verticillata; conditions: harvested 34 days after treatment, n = 3, endothall as a.e., combinations as total ppb
Source text: as §1, with “on 4 Nov.” for “on 18 Jul.”, “for 10” for “for 14”
as §2
All above ground biomass was harvested 34 days after treatment. Biomass was dried to constant moisture at 70° C., and dry weights were determined. Data were subjected to regression analysis using Sigma Plot software, and a GR50 was determined (concentration causing a 50% reduction in dry weight). All data were analyzed for synergism/antagonism using the Isobole analysis at the 95% confidence level (estimated using linear interpolation from 95% confidence bands) (refer to Example 2 for more information on Isobole analysis).

[6] = Zone 3 and southern portion of Zone 2, 15 ppb penoxsulam alone
[7] = 3-d exposure, harvested 48 days after initial treatment, n = 3
[8] = 6-d exposure (f/b: second agent added 6 days later, 6 day exposure to combination), harvested at 48 days
[9] = 12-d exposure (f/b: second agent added 12 days later, 12 day exposure to combination), harvested at 48 days
[10] = 24-d exposure (f/b: second agent added 24 days later, static exposure to combination), harvested at 48 days
[11] = 48-d (static) exposure, harvested at 48 days

SMILES | hydrilla control [1, 6] | hydrilla remaining near the water's surface [1, 6] | herbicidal injury of hydrilla ([1]; Zones 2 and 3, 15 ppb penoxsulam alone) | GR50 (concentration causing a 50% reduction in dry weight) [2] | Mean dry weight of hydrilla [3, 7] | Mean dry weight of hydrilla [3, 8] | Mean dry weight of hydrilla [3, 9] | Mean dry weight of hydrilla [3, 10] | Mean dry weight of hydrilla [3, 11] | OBSERVED RESPONSE ([3]; exposure 3 days) | OBSERVED RESPONSE ([3]; exposure 6 days) | OBSERVED RESPONSE ([3]; exposure 12 days) | OBSERVED RESPONSE ([3]; exposure 24 days) | OBSERVED RESPONSE ([3]; exposure 48 days) | hydrilla biomass compared to untreated controls (LSD, p = 0.05) [3] | time before severe injury is expressed ([4]; penoxsulam treated hydrilla, typical) | GR50 (concentration causing a 50% reduction in dry weight) [5] | hydrilla control ([4]; 0.71 ppm a.e. endothall partial area/spot treatment, general) | time before hydrilla plants defoliate and drop toward the lake bottom ([4]; 1.4 to 3.5 ppm a.e. endothall, typical, dependent on plant maturity) | contact with hydrilla required to achieve effective control ([4]; Netherland et al. 1991)
COc1cnc(OC)n2nc(NS(=O)(=O)c3c(OCC(F)F)cccc3C(F)(F)F)nc12 [Penoxsulam, 2-(2,2-difluoroethoxy)-6-trifluoromethyl-N-(5,8-dimethoxy[1,2,4]triazolo[1,5c]pyrimidin-2-yl)benzenesulfonamide] | no control was observed | Approximately 90% | slight but expected penoxsulam injury | 12 ppb | 4.01a | 3.97a | 3.68ab | 3.24ab | 2.41ab | 115% of control | 95% of control | 97% of control | 72% of control | 52% of control | not significantly different from untreated controls | about 60 days | – | – | – | –
O=C(O)[C@@H]1[C@H](C(=O)O)[C@H]2CC[C@@H]1O2 [Endothall, 3,6-endoxohexahydrophthalic acid] | – | – | – | 309 ppb | 2.24b | 2.61ab | 2.72c | 2.14bc | 1.62b | 64% of control | 62% of control | 48% of control | 47% of control | 35% of control | reduced hydrilla biomass compared to untreated controls at all exposure periods, except 3 and 6-day | – | 520 ppb | essentially no hydrilla control | 2-6 weeks | less than 72 hours
COCc1cnc(C2=NC(C)(C(C)C)C(=O)N2)c(C(=O)O)c1 (stereo not drawn) [Imazamox] | – | – | – | – | – | – | – | – | – | – | – | – | – | – | – | – | 680 ppb | – | – | –
